Results as given in US20220242963A1, “B-CELL ACTIVATING CD73 ANTIBODIES” (CORVUS PHARMACEUTICALS, INC., priority 2018, published 2022).

System: B cells (CD19+CD3−)
Test: B cell activation in healthy donor PBMC, flow cytometry of surface markers / phospho ERK
Assay type: cell-based, human
Settings: human B lymphocytes
Source text: With reference to FIGS. 2A-2E, each group of four bars from left to right represent data for: untreated donors, donors treated with human IgG1 isotype control, donors treated with BCR stimulation, and donors treated with CPI-006. The experiments for FIGS. 2A-2E are based on healthy donor PBMC treated overnight with flow cytometry analysis of surface markers on B cells (CD19^POS CD3^NEG). These lymphocyte markers are consistent with activation of B cells as well as other antigen presenting cell populations. […] The bar graph legend from top to bottom is representative of the data bars from left to right. […] For FIG. 2H the bar graph legend from top to bottom is representative of the data bars from left to right. For FIG. 2I the legend from top to bottom is representative of the data from top to bottom. […] For each group of four bars, the legend from top to bottom are representative of the bars from left to right.
PBMC were isolated from healthy donors and incubated with bead-bound anti-IgM, CPI-006 (10 μg/mL), or human IgG1 isotype control (10 μg/mL) overnight. Flow cytometry analysis was performed with gating on B cells (CD19+CD3−) and mean fluorescence intensity (MFI) was reported for staining with antibodies to the cell surface markers CD69, CD83, and CD25, as shown in FIGS. 2A-2C. PBMC were isolated from healthy donors and incubated with CPI-006, CPI-016, human IgG1 isotype control, and anti-human CD73 antibody, clone AD2 (available from Bio-Rad Antibodies) over a range of concentrations from about 0.1 μg/mL to more than 10 μg/mL. Flow cytometry analysis was performed with gating on B cells (CD19+CD3−) and mean fluorescence intensity (MFI) is reported for antibody staining of CD69, as shown in FIG. 2F. PBMC were isolated from healthy donors and incubated overnight with bead-bound anti-IgM or CPI-006 (1 μg/mL)+/−BTK inhibitor, ibrutinib (100 nM). Flow cytometry analysis was performed with gating on B cells (CD19+CD3−) and mean fluorescence intensity (MFI) is reported for antibody staining of CD69 and CD83, as shown in FIG. 2G. PBMC were isolated from healthy donors and incubated overnight with APCP (1 μM) or CPI-006 (1 μg/mL)+/−NECA (5′-N-ethylcarboxamidoadenosine). Flow cytometry analysis was performed with gating on B cells (CD19+CD3−) and mean fluorescence intensity (MFI) is reported for antibody staining of CD69, as shown in FIGS. 2H-2I. PBMC were isolated from healthy donors and incubated with the indicated treatments for 15 minutes. Flow cytometry analysis was performed with gating on the indicated cell populations and staining of phospho ERK was evaluated, as shown in FIG. 2J.

Substance: MEDI9447: anti-CD73 antibody described by Hay CM et al., Oncoimmunology 2016 [reference compound]
- direct B cell activation: do not show this effect
